≈ marks a conversion by molar mass, not a printed value. Counter-ions that a name gives are not always drawn. Like-named read-outs stand apart in the source and are kept apart here.
Tests used:
Aspergillus niger (ANIG) = assay: Minimum inhibitory concentration (MIC), broth two-fold serial dilution test; type: cell-based; settings: Aspergillus niger
[1] = tested on: Aureobasidium pullulans (APUL); assay: as above; type: cell-based; settings: Aureobasidium pullulans
Botrytis cinerea (BOC) = assay: In-vitro plant fungicide test; type: cell-based; settings: Botrytis cinerea, 25 ppm; Table IVa; *=Phytotoxic; read-out: % Control at 25 ppm BOC
Fusarium roseum (FUS) = assay: In-vitro plant fungicide test; type: cell-based; settings: Fusarium sambucinum, read-out: % Control at 25 ppm FUS, 25 ppm; Table IVa; *=Phytotoxic
[2] = tested on: Cochliobolus sativus (HEL); assay: In-vitro plant fungicide test; type: cell-based; settings: Bipolaris sorokiniana, 25 ppm; Table IVa; *=Phytotoxic; read-out: % Control at 25 ppm HEL
[3] = tested on: Phytophthora capsici (PHY); assay: In-vitro plant fungicide test; type: cell-based; settings: Phytophthora capsici; 25 ppm; Table IVa; read-out: % Control at 25 ppm PHY
Piricularia oryzae (PIR) = assay: microbe, parasite or virus in culture; type: cell-based; settings: read-out: % Control at 25 ppm PIR
Pythium ultimum (PYU) = assay: In-vitro plant fungicide test; type: cell-based; settings: Globisporangium ultimum; 25 ppm; Table IVa; read-out: % Control at 25 ppm PYU
Rhizoctonia solani (RHI) = assay: In-vitro plant fungicide test; type: cell-based; settings: Rhizoctonia solani; 25 ppm; Table IVa; read-out: % Control at 25 ppm RHI
Septoria nodorum (SEP) = assay: In-vitro plant fungicide test; type: cell-based; settings: Parastagonospora nodorum, 25 ppm; Table IVa; read-out: % Control at 25 ppm SEP
[4] = tested on: Xanthomonas campestris (XAN); assay: In-vitro plant fungicide test; type: cell-based; settings: Xanthomonas campestris; 25 ppm; Table IVa; read-out: % Control at 25 ppm XAN
THREE FUNGI = assay: MIC test against three fungi in Mycophile Broth, pH 5.0, read after 8 days (Table VII); type: cell-based; settings: 192 h
[5] = tested on: Pseudomonas fluorescens (PSFL); assay: Minimum inhibitory concentration (MIC), broth two-fold serial dilution test; settings: Pseudomonas fluorescens, read-out: MIC (G-) PSFL, M9G (minimal salts media with glucose)
[6] = tested on: Pseudomonas aerugenosa (PSAE); assay: as above; settings: Pseudomonas, read-out: MIC (G-) PSAE, M9G (minimal salts media with glucose)
Escherichia coli (ECOL) = assay: as above; settings: Escherichia coli, read-out: MIC (G-) ECOL, M9G (minimal salts media with glucose)
From the text: When the test is ready to be done, each vessel in the dilution series, except the first vessel, contains an equal volume of compound free broth. The first vessel contains twice the volume of broth with the starting concentration of test compound. One half of the broth from the first vessel is transferred to the second vessel. After being mixed, one half the resulting volume is removed from the second vessel and transferred to the third vessel. The entire cycle is repeated sufficiently to give a series of concentrations amounting to 500, 250, 125, 63, 31, 16, 8, and 4 ppm (or 100, 50, 25, 12.5, 6.2, 3.1, 1.6, and 0.8), respectively.
Each vessel is then inoculated with a cell suspension of the appropriate test organism. Bacteria are grown in broth, fungi on agar slants for a time and at a temperature appropriate to the species being tested, and algae are a mixture of green algae and blue-green bacteria grown in a nutrient media. At the end of the growth period, in the case of bacteria, the broth is vortexed to disperse the cells.
The vessels are then incubated at the appropriate temperature. After the incubation, the vessels are examined for growth/no growth.

[7] = tested on: Staphylococcus aureus (SAUR); assay: as above; settings: Staphylococcus aureus, read-out: MIC (G+) SAUR, M9G (minimal salts media with glucose)
[8] = M9G (minimal salts media with glucose), Table IIIa, read-out: MIC (F) ANIG
[9] = M9G (minimal salts media with glucose), Table IIIa, read-out: MIC (F) APUL
[10] = Aspergillus niger, serial dilutions from 50 ppm, read after 8 days of incubation, read-out: MIC ANIG
[11] = Aureobasidium pullulans, serial dilutions from 50 ppm, read after 8 days of incubation, read-out: MIC APUL
[12] = Gloeophyllum trabeum, serial dilutions from 50 ppm, read after 8 days of incubation, read-out: MIC GTRA
[13] = read-out: MIC (F) ANIG, M9G (minimal salts media with glucose), Table IIIa
[14] = read-out: MIC (F) APUL, M9G (minimal salts media with glucose), Table IIIa
[15] = Aspergillus niger, pH 5, read-out: MIC ANIG, Aspergillus niger, serial dilutions from 50 ppm, read after 8 days of incubation
[16] = Aureobasidium pullulans, pH 5, read-out: MIC APUL, Aureobasidium pullulans, serial dilutions from 50 ppm, read after 8 days of incubation
[17] = Gloeophyllum trabeum, pH 5, read-out: MIC GTRA, Gloeophyllum trabeum, serial dilutions from 50 ppm, read after 8 days of incubation
[18] = M9G (minimal salts media with glucose), Table IIIc, iodopropargyl esters of peptides, read-out: MIC (F) ANIG
[19] = M9G (minimal salts media with glucose), Table IIIc, iodopropargyl esters of peptides, read-out: MIC (F) APUL
[20] = Table IIIc, iodopropargyl esters of peptides

Structure (SMILES)	inhibition of growth at 25 ppm (Botrytis cinerea (BOC)) [%]	inhibition of growth at 25 ppm (Fusarium roseum (FUS)) [%]	inhibition of growth at 25 ppm [2] [%]	inhibition of growth at 25 ppm [3] [%]	inhibition of growth at 25 ppm (Piricularia oryzae (PIR)) [%]	inhibition of growth at 25 ppm (Pythium ultimum (PYU)) [%]	inhibition of growth at 25 ppm (Rhizoctonia solani (RHI)) [%]	inhibition of growth at 25 ppm (Septoria nodorum (SEP)) [%]	inhibition of growth at 25 ppm [4] [%]	MIC (THREE FUNGI; [10]) [µg/mL]	MIC (THREE FUNGI; [11]) [µg/mL]	MIC (THREE FUNGI; [12]) [µg/mL]	MIC ([5]; Table IIIa) [µg/mL]	MIC ([6]; Table IIIa) [µg/mL]	MIC (Escherichia coli (ECOL); Table IIIa) [µg/mL]	MIC ([7]; Table IIIa) [µg/mL]	MIC (Aspergillus niger (ANIG); [18]) [µg/mL]	MIC [1, 19] [µg/mL]	MIC [5, 20] [µg/mL]	MIC [6, 20] [µg/mL]	also measured
C[C@H](NC(=O)OC(C)(C)C)C(=O)OCC#CI [Compound 2, N-t-butoxycarbonyl-L-alanine iodopropargyl ester]	100	100	100	100	100	100	100	100	0	3.2 (≈ 9.06 µM)	25 (≈ 70.8 µM)	1.6 (≈ 4.53 µM)	50	> 100	> 100	50					MIC (Aspergillus niger (ANIG); [8]): 3 µg/mL; MIC [1, 9]: 3 µg/mL
CC(C)(C)OC(=O)N[C@@H](COCc1ccccc1)C(=O)OCC#CI [Compound 3, N-t-butoxycarbonyl-O-benzyl-L-serine iodopropargyl ester]	0	100	100	100	100	100	100	100	0	25 (≈ 54.4 µM)	50 (≈ 109 µM)	3.2 (≈ 6.97 µM)	> 100	> 100	> 100	25					MIC (Aspergillus niger (ANIG); [8]): 3 µg/mL; MIC [1, 9]: < 0.8 µg/mL
N[C@@H](COCc1ccccc1)C(=O)OCC#CI [Compound 9, O-benzyl-L-serine iodopropargyl ester trifluoroacetate]	100	100	100	100	100	100	100	100	0				25	125	64	500					MIC (Aspergillus niger (ANIG); [13]): < 4 µg/mL; MIC [1, 14]: < 4 µg/mL; MIC (THREE FUNGI; [15]): 25 µg/mL; MIC (THREE FUNGI; [16]): 50 µg/mL; MIC (THREE FUNGI; [17]): 12.5 µg/mL
N[C@@H](CSCc1ccccc1)C(=O)OCC#CI [Compound 10, S-benzyl-L-cysteine iodopropargyl ester trifluoroacetate]	0	100	50	100	100	100	100	100	0				> 100	100	> 100	> 100					MIC (Aspergillus niger (ANIG); [13]): 3 µg/mL; MIC [1, 14]: 6.3 µg/mL; MIC (THREE FUNGI; [15]): 6.2 µg/mL; MIC (THREE FUNGI; [16]): 12.5 µg/mL; MIC (THREE FUNGI; [17]): 6.2 µg/mL
C[C@@H](OCc1ccccc1)[C@H](N)C(=O)OCC#CI [Compound 11, O-benzyl-L-threonine iodopropargyl ester trifluoroacetate]	0	100	95	100	100	100	100	100	0				> 100	> 100	> 100	> 100					MIC (Aspergillus niger (ANIG); [13]): 6.3 µg/mL; MIC [1, 14]: 3 µg/mL; MIC (THREE FUNGI; [15]): 25 µg/mL; MIC (THREE FUNGI; [16]): 50 µg/mL; MIC (THREE FUNGI; [17]): 12.5 µg/mL
C[C@H](NC(=O)OC(C)(C)C)C(=O)NCC(=O)OCC#CI [Compound 12, N-t-butoxycarbonyl-L-alanylglycine iodopropargyl ester]	0	0	0	100	100	100	100	95	0	25 (≈ 60.9 µM)	> 50	6.2 (≈ 15.1 µM)					6	< 0.8	50	50	MIC (Escherichia coli (ECOL); [20]): 50 µg/mL; MIC [7, 20]: 50 µg/mL
C[C@H](NC(=O)OC(C)(C)C)C(=O)N[C@@H](C)C(=O)OCC#CI [Compound 13, N-t-butoxycarbonyl-L-alanyl-L-alanine iodopropargyl ester]	50	100	100	100	100	100	100	100	0	25 (≈ 58.9 µM)	50 (≈ 118 µM)	6.2 (≈ 14.6 µM)					< 0.8	< 0.8	50	50	MIC (Escherichia coli (ECOL); [20]): 100 µg/mL; MIC [7, 20]: 50 µg/mL
C[C@H](NC(=O)OC(C)(C)C)C(=O)N[C@@H](COCc1ccccc1)C(=O)OCC#CI [Compound 14, N-t-butoxycarbonyl-L-alanyl-O-benzyl-L-serine iodopropargyl ester]	0	100	50	75	100	0	90	0	0	50 (≈ 94.3 µM)	> 50	12.5 (≈ 23.6 µM)					6	< 0.8	100	50	MIC (Escherichia coli (ECOL); [20]): > 100 µg/mL; MIC [7, 20]: 100 µg/mL
C[C@H](NC(=O)OC(C)(C)C)C(=O)N[C@@H](CSCc1ccccc1)C(=O)OCC#CI [Compound 15, N-t-butoxycarbonyl-L-alanyl-S-benzyl-L-cysteine iodopropargyl ester]	0	100	0	100	100	100	100	100	0	> 50	> 50	50 (≈ 91.5 µM)					6	1.6	> 100	> 100	MIC (Escherichia coli (ECOL); [20]): > 100 µg/mL; MIC [7, 20]: > 100 µg/mL

Source: patent publication EP0414533A1, “Use of iodopropargyl esters of alpha-amino acid derivatives as antimicrobial agents” (ROHM AND HAAS COMPANY, priority 1989, dated 1991)
